According to ChEMBL document CHEMBL3817847, “Design and synthesis of fused soluble epoxide hydrolase/peroxisome proliferator-activated receptor modulators” (Medchemcomm, 2016):
Active and inactive are the calls of the source. No cut-off for these calls is given here.

What was measured:
[1] = molecular target: T1, Bifunctional epoxide hydrolase 2 (Homo sapiens, UniProt P34913); test: Inhibition of recombinant human […] assessed as product formation preincubated for 30 mins followed by addition of (3-phenyl-cyano-(6-methoxy-2-naphthalenyl)methyl ester-2-oxirane-acetic acid as substrate measured after 30 mins by fluorescence analysis
T1 sequence (P34913 whole entry): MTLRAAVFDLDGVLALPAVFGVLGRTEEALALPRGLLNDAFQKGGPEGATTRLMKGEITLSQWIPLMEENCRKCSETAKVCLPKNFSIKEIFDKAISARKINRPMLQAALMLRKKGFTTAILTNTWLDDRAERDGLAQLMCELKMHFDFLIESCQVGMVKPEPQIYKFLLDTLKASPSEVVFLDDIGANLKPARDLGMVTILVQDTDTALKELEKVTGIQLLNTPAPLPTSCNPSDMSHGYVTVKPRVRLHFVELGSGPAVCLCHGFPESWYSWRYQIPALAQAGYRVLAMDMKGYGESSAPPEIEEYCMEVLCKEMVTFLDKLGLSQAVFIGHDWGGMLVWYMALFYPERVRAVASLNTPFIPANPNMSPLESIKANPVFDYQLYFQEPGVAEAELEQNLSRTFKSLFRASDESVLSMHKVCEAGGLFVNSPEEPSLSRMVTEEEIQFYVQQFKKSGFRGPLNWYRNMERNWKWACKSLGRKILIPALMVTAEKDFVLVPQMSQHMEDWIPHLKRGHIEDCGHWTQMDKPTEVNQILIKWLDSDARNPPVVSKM

[2] = molecular target: T2, Peroxisome proliferator-activated receptor alpha (Homo sapiens) (UniProt Q07869); test: Agonist activity at Gal4-tagged human PPARalpha ligand binding domain expressed in COS-7 cells at 10 um measured after overnight incubation by dual-glo luciferase reporter gene assay; format: cell-based
T2 sequence (whole entry): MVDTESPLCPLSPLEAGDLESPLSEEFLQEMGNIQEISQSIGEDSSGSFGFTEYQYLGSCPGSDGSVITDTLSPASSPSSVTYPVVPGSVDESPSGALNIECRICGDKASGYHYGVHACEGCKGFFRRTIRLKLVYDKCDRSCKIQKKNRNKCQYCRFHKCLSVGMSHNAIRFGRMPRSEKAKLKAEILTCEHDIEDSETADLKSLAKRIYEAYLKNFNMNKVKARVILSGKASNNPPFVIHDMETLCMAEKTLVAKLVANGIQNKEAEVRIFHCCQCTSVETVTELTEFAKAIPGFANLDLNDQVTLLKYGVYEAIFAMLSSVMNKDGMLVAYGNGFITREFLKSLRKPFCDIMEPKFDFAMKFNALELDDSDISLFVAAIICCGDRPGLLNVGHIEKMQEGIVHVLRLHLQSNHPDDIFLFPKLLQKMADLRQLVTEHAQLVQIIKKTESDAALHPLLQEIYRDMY

[3] = molecular target: T3, Peroxisome proliferator-activated receptor delta (Homo sapiens, UniProt Q03181); test: Agonist activity at Gal4-tagged human PPARdelta ligand binding domain expressed in COS-7 cells measured after overnight incubation by dual-glo luciferase reporter gene assay; format: cell-based
T3 sequence (Q03181 whole entry): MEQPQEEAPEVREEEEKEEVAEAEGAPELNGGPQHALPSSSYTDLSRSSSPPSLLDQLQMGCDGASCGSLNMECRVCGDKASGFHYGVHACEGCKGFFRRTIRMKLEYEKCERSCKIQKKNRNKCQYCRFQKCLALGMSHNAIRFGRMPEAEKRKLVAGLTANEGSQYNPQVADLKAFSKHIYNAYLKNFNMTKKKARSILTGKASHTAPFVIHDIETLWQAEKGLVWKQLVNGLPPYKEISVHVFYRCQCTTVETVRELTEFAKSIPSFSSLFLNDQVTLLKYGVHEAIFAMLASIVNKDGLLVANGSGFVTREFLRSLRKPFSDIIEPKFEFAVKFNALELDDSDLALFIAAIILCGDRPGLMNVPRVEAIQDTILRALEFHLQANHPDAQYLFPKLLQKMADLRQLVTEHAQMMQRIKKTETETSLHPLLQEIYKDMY

[4] = molecular target: T4, Peroxisome proliferator-activated receptor gamma (Homo sapiens, UniProt P37231); test: Agonist activity at Gal4-tagged human PPARgamma ligand binding domain expressed in COS-7 cells measured after overnight incubation by dual-glo luciferase reporter gene assay; format: cell-based
T4 sequence (P37231 whole entry): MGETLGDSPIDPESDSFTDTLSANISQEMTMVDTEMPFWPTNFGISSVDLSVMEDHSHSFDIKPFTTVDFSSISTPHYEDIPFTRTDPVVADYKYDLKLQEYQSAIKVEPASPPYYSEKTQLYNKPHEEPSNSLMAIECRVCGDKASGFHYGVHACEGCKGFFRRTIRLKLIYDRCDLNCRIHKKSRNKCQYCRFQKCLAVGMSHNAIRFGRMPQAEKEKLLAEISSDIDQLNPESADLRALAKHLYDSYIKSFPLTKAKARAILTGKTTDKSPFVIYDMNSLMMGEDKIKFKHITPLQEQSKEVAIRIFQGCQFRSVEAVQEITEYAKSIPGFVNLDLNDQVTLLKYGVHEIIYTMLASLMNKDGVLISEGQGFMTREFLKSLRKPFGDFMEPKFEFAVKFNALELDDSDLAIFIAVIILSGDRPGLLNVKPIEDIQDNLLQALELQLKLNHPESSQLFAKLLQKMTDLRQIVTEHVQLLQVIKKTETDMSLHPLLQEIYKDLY

[5] = molecular target: T5, Peroxisome proliferator-activated receptor alpha (Homo sapiens, UniProt Q07869); test: Agonist activity at Gal4-tagged human PPARalpha ligand binding domain expressed in COS-7 cells measured after overnight incubation by dual-glo luciferase reporter gene assay; format: cell-based
T5 sequence (Q07869 whole entry): T2 sequence (whole entry)

3T3-L1 [6] = test: Agonist activity at PPAR in mouse 3T3L1 cells assessed as increase in adipocyte differentiation at 2 uM after 14 days by Oil Red O staining method; format: cell-based
[7] = molecular target: T6, Peroxisome proliferator-activated receptor delta (Homo sapiens) (UniProt Q03181); test: Agonist activity at Gal4-tagged human PPARdelta ligand binding domain expressed in COS-7 cells at 30 uM measured after overnight incubation by dual-glo luciferase reporter gene assay; format: cell-based
T6 sequence (whole entry): T3 sequence (Q03181 whole entry)

[8] = molecular target: T7, Peroxisome proliferator-activated receptor gamma (Homo sapiens) (UniProt P37231); test: Agonist activity at Gal4-tagged human PPARgamma ligand binding domain expressed in COS-7 cells at 30 uM measured after overnight incubation by dual-glo luciferase reporter gene assay; format: cell-based
T7 sequence (whole entry): T4 sequence (P37231 whole entry)

[9] = molecular target: T2, Peroxisome proliferator-activated receptor alpha (Homo sapiens); test: Agonist activity at Gal4-tagged human PPARalpha ligand binding domain expressed in COS-7 cells at 30 uM measured after overnight incubation by dual-glo luciferase reporter gene assay; format: cell-based
[10] = molecular target: T7, Peroxisome proliferator-activated receptor gamma (Homo sapiens); test: Agonist activity at Gal4-tagged human PPARgamma ligand binding domain expressed in COS-7 cells at 10 uM measured after overnight incubation by dual-glo luciferase reporter gene assay; format: cell-based
3T3-L1 [11] = test: Partial agonist activity at PPAR in mouse 3T3L1 cells assessed as increase in adipocyte differentiation after 14 days by Oil Red O staining method; format: cell-based

| Compound | IC50 ([1]; read-out: IC50) [µM] | EC50 ([3]; cos-7) | EC50 ([4]; cos-7) | EC50 ([5]; cos-7) | further results |
| --- | --- | --- | --- | --- | --- |
| CCCCCCC(Sc1nc(Cl)cc(N2CCC(C(=O)NCc3ccccc3C(F)(F)F)CC2)n1)C(=O)O (configuration not stated) | 0.3 | Not Active | Not Active | – | Emax [2]: 65% |
| CC/C(=C\c1ccc(N2CCC(C(=O)NCc3ccccc3C(F)(F)F)CC2)cc1)C(=O)O | 0.027 | Not Active | Not Active | Not Active | – |
| CCC(Cc1ccc(N2CCC(C(=O)NCc3ccccc3C(F)(F)F)CC2)cc1)C(=O)O (configuration not stated) | 0.075 | Not Active | Not Active | Not Active | – |
| CN(CCOc1ccc(CC2SC(=O)NC2=O)cc1)c1ccccn1 (configuration not stated) | – | – | – | – | Activity (3T3-L1 [6]): Active |
| CC(Oc1ccc(CCNC(=O)Nc2ccc(Cl)cc2)cc1)C(=O)O (configuration not stated) | 0.57 | – | – | – | Activity [7]: inactive; Activity [8]: inactive; Activity [9]: inactive |
| CCOC(=O)C(C)Oc1ccc(CCNC(=O)Nc2ccc(Cl)cc2)cc1 (configuration not stated) | 0.027 | – | – | – | Activity [7]: inactive; Activity [8]: inactive; Activity [9]: inactive |
| O=C(Nc1ccc(I)cc1)NC1CCCCC1 | – | Not Active | – | Not Active | Emax [10]: 22% |
| CCCCCCC(Sc1nc(Cl)cc(NCCCC(=O)NCc2ccccc2C(F)(F)F)n1)C(=O)O (configuration not stated) | 1.2 | Not Active | – | – | EC50 ([5]; read-out: EC50): 2.5 µM; Activity (3T3-L1 [11]): Dose-dependent effect; EC50 ([4]; read-out: EC50): 6 µM |
| CCCCCCC(Sc1nc(Cl)cc(NCCCC(=O)NCc2ccccc2C(F)(F)F)n1)C(=O)OCC (configuration not stated) | 1.3 | Not Active | Not Active | Not Active | – |
| CCOC(=O)C(C)Oc1ccc(CNC(=O)Nc2ccc(Cl)cc2)cc1 (configuration not stated) | 0.064 | – | – | – | Activity [7]: inactive; Activity [8]: inactive; Activity [9]: inactive |
| CCOC(=O)C(CC)Cc1ccc(N2CCC(C(=O)NCc3ccccc3C(F)(F)F)CC2)cc1 (configuration not stated) | 0.023 | Not Active | Not Active | Not Active | – |
| CNc1nc(C)nc(N[C@H]2CCC[C@@H](C(=O)NCc3ccc(C#N)cc3C(F)(F)F)C2)n1 [GSK2256294] | – | Not Active | Not Active | Not Active | – |
| CC(C)(Oc1ccc(CCNC(=O)c2ccc(Cl)cc2)cc1)C(=O)O [BEZAFIBRATE] | – | – | – | – | IC50 [1]: Not Active; EC50 ([3]; read-out: EC50): 22.6 µM; EC50 ([4]; read-out: EC50): 15.4 µM |
| CCOC(=O)/C(=C/c1ccc(N2CCC(C(=O)NCc3ccccc3C(F)(F)F)CC2)cc1)CC | 0.04 | Not Active | Not Active | Not Active | – |
| CCCCCCC(Sc1nc(Cl)cc(Nc2ccc(Nc3ccccc3)cc2)n1)C(=O)O (configuration not stated) | – | Not Active | – | – | IC50 [1]: Not Active; EC50 ([5]; read-out: EC50): 0.067 µM |
| CC(Oc1ccc(CNC(=O)Nc2ccc(Cl)cc2)cc1)C(=O)O (configuration not stated) | 0.85 | – | – | – | Activity [7]: inactive; Activity [8]: inactive; Activity [9]: inactive |
| CCCCCCC(Sc1nc(Cl)cc(N2CCC(C(=O)NCc3ccccc3C(F)(F)F)CC2)n1)C(=O)OCC (configuration not stated) | 2.5 | Not Active | Not Active | Not Active | – |
